Consider eight molecules from patent US12649722B2, “Herbicidal cinnoline derivatives” (SYNGENTA CROP PROTECTION AG, priority 2020, dated 2026).

Format in all cases: in vivo
In assay [1] the test system is Ipornoea hederacea (IPOHE). The assay is described as follows: Pre-emergence Test, IPOHE. Particulars: 1000 g/ha, evaluated after 13 days.
Assay [2] concerns Amaranthus retoflexus (AMARE). Briefly: Post-emergence Test, AMARE. Particulars: sprayed after 8 days cultivation, 1000 g/ha, evaluated after 13 days. An outline of the steps: (§1)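 Pots sown with AMARE, SOLNI, SETFA, LOLPE, ECHCG, IPOHE, kept in glasshouse (24/16 °C, 14 h light, 65% humidity), sprayed at 1000 g/ha unless stated, in acetone/water 50:50 with 0.5% Tween 20. Damage scored after 13 days on a 0–5 scale (5=81–100%, 0=0%).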

In assay [3] the test system is Echinochloa crus-galli (ECHCG). The assay is described as follows: Post-emergence Test, ECHCG. Particulars: sprayed after 8 days cultivation, 1000 g/ha, evaluated after 13 days. The gist of the method:
as §1

For assay [4], the system named is Echinochloa crus-galli (ECHCG). Briefly: Pre-emergence Test, ECHCG. Particulars: 1000 g/ha, evaluated after 13 days.
The subject of assay [5] is Solarium nigrum (SOLNI). Briefly: Pre-emergence Test, SOLNI. Particulars: 1000 g/ha, evaluated after 13 days.
In assay [6] the test system is Amaranthus retoflexus (AMARE). Briefly: Pre-emergence Test, AMARE. Particulars: 1000 g/ha, evaluated after 13 days.
Assay [7] deals with Setaria faberi (SETFA). Briefly: Pre-emergence Test, SETFA. Particulars: 1000 g/ha, evaluated after 13 days.
Assay [8] concerns Lolium perenne (LOLPE). Briefly: Post-emergence Test, LOLPE. Particulars: sprayed after 8 days cultivation, 1000 g/ha, evaluated after 13 days. Here is the method: (§2) Seeds of a variety of test species are sown in standard soil in pots (Amaranthus retoflexus (AMARE), Solarium nigrum (SOLNI), Setaria faberi (SETFA), Lolium perenne (LOLPE), Echinochloa crus-galli (ECHCG), Ipornoea hederacea (IPOHE)). After 8 days cultivation under controlled conditions in a glasshouse (at 24° C./16° C., day/night; 14 hours light; 65% humidity), the plants are sprayed with an aqueous spray solution derived from the formulation of the technical active ingredient in acetone/water (50:50) solution containing 0.5% Tween 20 (polyoxyethylene sorbitan monolaurate, CAS RN 9005-64-5). Compounds are applied at 1000 g/ha unless otherwise stated. The test plants are then grown in a glasshouse under controlled conditions in a glasshouse (at 24° C./16° C., day/night; 14 hours light; 65% humidity) and watered twice daily. After 13 days the test is evaluated for the percentage damage caused to the plant. The biological activities are shown in the following table on a five-point scale (5=81-100%; 4=61-80%; 3=41-60%; 2=21-40%; 1=10-20%; 0=0%; −=not tested).

Assay [9] has as its system Ipornoea hederacea (IPOHE). The assay is described as follows: Post-emergence Test, IPOHE. Particulars: sprayed after 8 days cultivation, 1000 g/ha, evaluated after 13 days. The gist of the method:
as §1

Assay [10] concerns Setaria faberi (SETFA). The assay is described as follows: Post-emergence Test, SETFA. Particulars: sprayed after 8 days cultivation, 1000 g/ha, evaluated after 13 days. An outline of the steps:
as §1

Assay [11] has as its system Lolium perenne (LOLPE). Briefly: Pre-emergence Test, LOLPE. Particulars: 1000 g/ha, evaluated after 13 days.
The test system of assay [12] is Solarium nigrum (SOLNI). Briefly: Post-emergence Test, SOLNI. Particulars: sprayed after 8 days cultivation, 1000 g/ha, evaluated after 13 days. Here is the method:
as §2

For assay [13], the system named is ZEAMX. Briefly: Post-emergence Test, ZEAMX. Particulars: sprayed after 8 days cultivation, 1000 g/ha, evaluated after 13 days.
The subject of assay [14] is ZEAMX. The assay is described as follows: Pre-emergence Test, ZEAMX. Particulars: 1000 g/ha, evaluated after 13 days.
Assay [15] has as its system ABUTH. The assay is described as follows: Post-emergence Test, ABUTH. Particulars: sprayed after 8 days cultivation, 1000 g/ha, evaluated after 13 days.
Assay [16] concerns ABUTH. Briefly: Pre-emergence Test, ABUTH. Particulars: 1000 g/ha, evaluated after 13 days.

Consider `CO/N=C(\C)c1cccc2c1c(=O)c(C(=O)OC)nn2-c1ccc(OC(F)(F)F)cc1` [Compound P1, methyl 5-[(E)-N-methoxy-C-methyl-carbonimidoyl]-4-oxo-1-[4-(trifluoromethoxy)phenyl] cinnoline-3-carboxylate], for which the entries for the “percentage damage caused to the plant, IPOHE” value in [1] and in assay [9] were 1 (1=10-20%) and 2 (2=21-40%), respectively. For the same molecule, the figures for the “percentage damage caused to the plant, AMARE” value in [2] and in assay [6] were 2 (2=21-40%) and 1 (1=10-20%), respectively. Also, the “percentage damage caused to the plant, ECHCG” value in [3] and in assay [4] was 5 (5=81-100%) in each case. Moreover, the “percentage damage caused to the plant, SOLNI” value is 1 (1=10-20%) in assay [5] and 3 (3=41-60%) in [12]. For the same molecule, the “percentage damage caused to the plant, SETFA” value in assay [7] is listed as 5 (5=81-100%); in [10], 4 (4=61-80%). The “percentage damage caused to the plant, LOLPE” value in assay [8] and in assay [11] was 4 (4=61-80%) throughout.

As to `C=C(OC)c1cccc2c1c(=O)c(C(=O)OC)nn2-c1ccc(OC(F)(F)F)cc1` [Compound P4, methyl 5-(1-methoxyvinyl)-4-oxo-1-[4-(trifluoromethoxy)phenyl] cinnoline-3-carboxylate], the “percentage damage caused to the plant, IPOHE” value in [1] was 0 (0=0%); in [9], 4 (4=61-80%). The “percentage damage caused to the plant, AMARE” value in assay [2] and in assay [6] was 0 (0=0%) each time. The “percentage damage caused to the plant, ECHCG” value is 4 (4=61-80%) in [3] and 5 (5=81-100%) in assay [4]. Moreover, the “percentage damage caused to the plant, SOLNI” value in assay [5] and in [12] was 0 (0=0%) each time. Moreover, the “percentage damage caused to the plant, SETFA” value is recorded as 5 (5=81-100%) in assay [7] and 4 (4=61-80%) in assay [10]. Also, the “percentage damage caused to the plant, LOLPE” value in assay [8] was 4 (4=61-80%); in assay [11], 5 (5=81-100%).

Take `CCOC(=O)c1nn(-c2ccc(OC(F)(F)F)cc2)c2cccc(-n3cc(C(F)(F)F)nn3)c2c1=O` [Compound P33, ethyl 4-oxo-1-[4-(trifluoromethoxy)phenyl]-5-[4-(trifluoromethyl)triazol-1-yl]cinnoline-3-carboxylate]: the “percentage damage caused to the plant, ZEAMX” value in assay [13] was 0 (0=0%); in assay [14], 1 (1=10-20%). Also, the “percentage damage caused to the plant, IPOHE” value in assay [1] and in [9] was 0 (0=0%) in each case. The “percentage damage caused to the plant, AMARE” value in assay [2] and in assay [6] was 0 (0=0%) each time. Also, the “percentage damage caused to the plant, ECHCG” value in assay [3] and in assay [4] was 0 (0=0%) each time. Also, the “percentage damage caused to the plant, SETFA” value in [7] and in [10] was 0 (0=0%) in each case. For the same molecule, the “percentage damage caused to the plant, ABUTH” value in [15] and in [16] was 0 (0=0%) each time.

As for `CCOC(=O)c1nn(-c2ccc(OC(F)(F)F)cc2)c2cccc(-n3ncc(C(F)(F)F)n3)c2c1=O` [Compound P34, ethyl 4-oxo-1-[4-(trifluoromethoxy)phenyl]-5-[4-(trifluoromethyl)triazol-2-yl]cinnoline-3-carboxylate], the “percentage damage caused to the plant, ZEAMX” value in assay [13] is 0 (0=0%); in assay [14] it was 2 (2=21-40%). Besides, the “percentage damage caused to the plant, IPOHE” value in [1] and in assay [9] was 0 (0=0%) throughout. For the same molecule, the “percentage damage caused to the plant, AMARE” value in assay [2] and in [6] was 0 (0=0%) each time. Also, the “percentage damage caused to the plant, ECHCG” value in assay [3] and in [4] was 0 (0=0%) in each case. In addition, the “percentage damage caused to the plant, SETFA” value in assay [7] and in [10] was 0 (0=0%) each time. For the same molecule, the “percentage damage caused to the plant, ABUTH” value in assay [15] and in [16] was 0 (0=0%) throughout.

As to `CCOC(=O)c1nn(-c2ccc(OC(F)(F)F)cc2)c2cccc(CC#N)c2c1=O` [Compound P35, ethyl 5-(cyanomethyl)-4-oxo-1-[4-(trifluoromethoxy)phenyl] cinnoline-3-carboxylate], the figures for the “percentage damage caused to the plant, ZEAMX” value in assay [13] and in assay [14] were 3 (3=41-60%) and 2 (2=21-40%), respectively. The “percentage damage caused to the plant, IPOHE” value in assay [1] and in assay [9] was 0 (0=0%) in each case. In addition, the figures for the “percentage damage caused to the plant, AMARE” value in assay [2] and in assay [6] were 0 (0=0%) and 1 (1=10-20%), respectively. The “percentage damage caused to the plant, ECHCG” value in assay [3] was 4 (4=61-80%); in assay [4], 5 (5=81-100%). Also, the “percentage damage caused to the plant, SETFA” value in assay [7] was 5 (5=81-100%); in [10], 4 (4=61-80%). Also, the “percentage damage caused to the plant, ABUTH” value in assay [15] and in assay [16] was 0 (0=0%) throughout.

On to `CCOC(=O)c1nn(-c2ccc(OC(F)(F)F)cc2)c2cccc(C(F)F)c2c1=O` [Compound P36, ethyl 5-(difluoromethyl)-4-oxo-1-[4-(trifluoromethoxy)phenyl] cinnoline-3-carboxylate], for which the “percentage damage caused to the plant, ZEAMX” value in assay [13] and in assay [14] was 0 (0=0%) in each case. Moreover, the “percentage damage caused to the plant, IPOHE” value is recorded as 1 (1=10-20%) in assay [1] and 0 (0=0%) in [9]. Further, the “percentage damage caused to the plant, AMARE” value in [2] and in assay [6] was 0 (0=0%) in each case. Also, the “percentage damage caused to the plant, ECHCG” value in assay [3] and in assay [4] was 0 (0=0%) in each case. The “percentage damage caused to the plant, SETFA” value in assay [7] is listed as 2 (2=21-40%); in assay [10] it was 1 (1=10-20%). For the same molecule, the “percentage damage caused to the plant, ABUTH” value is on record as 0 (0=0%) in [15] and 1 (1=10-20%) in [16].

For the molecule `O=C(O)c1nn(-c2ccc(OC(F)(F)F)cc2)c2cccc(C(F)F)c2c1=O` [Compound P37, 5-(difluoromethyl)-4-oxo-1-[4-(trifluoromethoxy)phenyl] cinnoline-3-carboxylic acid], the results for the “percentage damage caused to the plant, ZEAMX” value in [13] and in assay [14] were 1 (1=10-20%) and 0 (0=0%), respectively. Moreover, the “percentage damage caused to the plant, IPOHE” value in assay [1] is given as 0 (0=0%); in assay [9], 1 (1=10-20%). Further, the “percentage damage caused to the plant, AMARE” value in [2] is reported as 1 (1=10-20%); in [6], 0 (0=0%). For the same molecule, the “percentage damage caused to the plant, ECHCG” value in assay [3] is given as 2 (2=21-40%); in assay [4], 0 (0=0%). The “percentage damage caused to the plant, SETFA” value in [7] is on record as 0 (0=0%); in assay [10], 2 (2=21-40%). Also, the “percentage damage caused to the plant, ABUTH” value in [15] and in assay [16] was 0 (0=0%) throughout.

Turning to `CCOC(=O)c1nn(-c2ccc(OC(F)(F)F)cc2)c2cccc(C#N)c2c1=O` [Compound P38, ethyl 5-cyano-4-oxo-1-[4-(trifluoromethoxy)phenyl] cinnoline-3-carboxylate], the “percentage damage caused to the plant, ZEAMX” value in assay [13] and in assay [14] was 2 (2=21-40%) each time. Further, the “percentage damage caused to the plant, IPOHE” value in [1] is 1 (1=10-20%); in assay [9], 3 (3=41-60%). Besides, the “percentage damage caused to the plant, AMARE” value in assay [2] and in assay [6] was 3 (3=41-60%) each time. Besides, the “percentage damage caused to the plant, ECHCG” value in assay [3] and in assay [4] was 5 (5=81-100%) in each case. In addition, the “percentage damage caused to the plant, SETFA” value in [7] is 5 (5=81-100%); in assay [10] it was 4 (4=61-80%). Also, the “percentage damage caused to the plant, ABUTH” value in [15] is 1 (1=10-20%); in assay [16] it was 0 (0=0%).
